Reference: ChEMBL document CHEMBL1201862, “PubChem BioAssay data set” (2004)
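Method: 48-hour compound exposure of cells in 96-well plates, five concentrations, linear interpolation of endpoints. At the GI50, growth is halved.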 The source made the active and inactive calls. Rule as the data show it: active = GI50 up to about 1.1 µM and inactive = higher.

What was measured:
Assay in all cases: inhibition of tumour cell growth, NCI panel, 48 h
786-0 = system: 786-0
NCI-H522 = system: NCI-H522
UACC-62 = system: UACC-62
ACHN = system: ACHN
HL-60 = system: HL-60
MDA-MB-231 = system: MDA-MB-231
CCRF-CEM = system: CCRF-CEM
T47D = system: T47D
OVCAR-4 = system: OVCAR-4
DU-145 = system: DU-145
MDA-MB-435 = system: MDA-MB-435
OVCAR-8 = system: OVCAR-8
HCT-15 = system: HCT-15
SK-MEL-2 = system: SK-MEL-2
NCI-H23 = system: NCI-H23
SF-295 = system: SF-295
KM12 = system: KM12
OVCAR-5 = system: OVCAR-5
NCI/ADR-RES = system: NCI/ADR-RES
NCI-H460 = system: NCI-H460
SK-MEL-28 = system: SK-MEL-28
SW-620 = system: SW-620
HCT-116 = system: HCT-116
MCF7 = system: MCF7
A498 = system: A498
SK-MEL-5 = system: SK-MEL-5
MDA-N = system: MDA-N
RXF 393 = system: RXF 393
Hs-578T = system: Hs-578T
SR = system: SR
SN12C = system: SN12C
COLO 205 = system: COLO 205
HOP-62 = system: HOP-62
Malme-3M = system: Malme-3M
HT-29 = system: HT-29
M14 = system: M14
IGROV-1 = system: IGROV-1
PC-3 = system: PC-3
K562 = system: K562
SF-268 = system: SF-268
SNB-19 = system: SNB-19
TK-10 = system: TK-10
EKVX = system: EKVX
BT-549 = system: BT-549
CAKI-1 = system: CAKI-1
SK-OV-3 = system: SK-OV-3
SNB-75 = system: SNB-75
HOP-92 = system: HOP-92
A549 = system: A549
OVCAR-3 = system: OVCAR-3
UACC-257 = system: UACC-257
U-251 = system: U-251
LOX IMVI = system: LOX IMVI
MOLT-4 = system: MOLT-4
RPMI-8226 = system: RPMI-8226
UO-31 = system: UO-31
SF-539 = system: SF-539
NCI-H226 = system: NCI-H226
HCC 2998 = system: HCC 2998

Compound: CN(C)S(=O)(=O)c1ccc(Nc2ccc(O)c3c2C(=O)c2c([N+](=O)[O-])ccc(O)c2C3=O)cc1
- GI50 (786-0): > 100 µM (inactive)
- GI50 (NCI-H522): 52.8 µM (inactive)
- GI50 (UACC-62): > 100 µM (inactive)
- GI50 (ACHN): 55 µM (inactive)
- GI50 (HL-60): > 100 µM (inactive)
- GI50 (MDA-MB-231): 91.2 µM (inactive)
- GI50 (CCRF-CEM): 4.39 µM (inactive)
- GI50 (T47D): > 100 µM (inactive)
- GI50 (OVCAR-4): > 100 µM (inactive)
- GI50 (DU-145): > 100 µM (inactive)
- GI50 (MDA-MB-435): > 100 µM (inactive)
- GI50 (OVCAR-8): > 100 µM (inactive)
- GI50 (HCT-15): > 100 µM
- GI50 (SK-MEL-2): > 100 µM (inactive)
- GI50 (NCI-H23): > 100 µM (inactive)
- GI50 (SF-295): > 100 µM (inactive)
- GI50 (KM12): > 100 µM (inactive)
- GI50 (OVCAR-5): > 100 µM (inactive)
- GI50 (NCI/ADR-RES): > 100 µM (inactive)
- GI50 (NCI-H460): > 100 µM (inactive)
- GI50 (SK-MEL-28): > 100 µM (inactive)
- GI50 (SW-620): 92.3 µM (inactive)
- GI50 (HCT-116): 72.9 µM (inactive)
- GI50 (MCF7): > 100 µM (inactive)
- GI50 (A498): > 100 µM (inactive)
- GI50 (SK-MEL-5): 72.3 µM (inactive)
- GI50 (MDA-N): > 100 µM (inactive)
- GI50 (RXF 393): > 100 µM (inactive)
- GI50 (Hs-578T): > 100 µM (inactive)
- GI50 (SR): 54.2 µM (inactive)
- GI50 (SN12C): > 100 µM (inactive)
- GI50 (COLO 205): 65.8 µM (inactive)
- GI50 (HOP-62): > 100 µM (inactive)
- GI50 (Malme-3M): 57.4 µM (inactive)
- GI50 (HT-29): > 100 µM (inactive)
- GI50 (M14): > 100 µM (inactive)
- GI50 (IGROV-1): > 100 µM (inactive)
- GI50 (PC-3): > 100 µM (inactive)
- GI50 (K562): > 100 µM (inactive)
- GI50 (SF-268): > 100 µM (inactive)
- GI50 (SNB-19): > 100 µM (inactive)
- GI50 (TK-10): 56.4 µM (inactive)
- GI50 (EKVX): > 100 µM (inactive)
- GI50 (BT-549): > 100 µM (inactive)
- GI50 (CAKI-1): > 100 µM (inactive)
- GI50 (SK-OV-3): > 100 µM (inactive)
- GI50 (SNB-75): > 100 µM (inactive)
- GI50 (HOP-92): > 100 µM (inactive)
- GI50 (A549): > 100 µM (inactive)
- GI50 (OVCAR-3): > 100 µM (inactive)
- GI50 (UACC-257): > 100 µM (inactive)
- GI50 (U-251): > 100 µM (inactive)
- GI50 (LOX IMVI): 64.7 µM (inactive)
- GI50 (MOLT-4): 35.5 µM (inactive)
- GI50 (RPMI-8226): > 100 µM (inactive)
- GI50 (UO-31): > 100 µM (inactive)

Compound: CCCC1C(=O)Nc2cccc3ncn(c23)C1=O (stereo not given)
- GI50 (786-0): > 100 µM (inactive)
- GI50 (UACC-62): > 100 µM (inactive)
- GI50 (ACHN): > 100 µM (inactive)
- GI50 (HL-60): > 100 µM (inactive)
- GI50 (MDA-MB-231): > 100 µM (inactive)
- GI50 (CCRF-CEM): > 100 µM (inactive)
- GI50 (T47D): > 100 µM (inactive)
- GI50 (OVCAR-4): > 100 µM (inactive)
- GI50 (DU-145): > 100 µM (inactive)
- GI50 (MDA-MB-435): > 100 µM (inactive)
- GI50 (OVCAR-8): > 100 µM (inactive)
- GI50 (HCT-15): > 100 µM
- GI50 (SK-MEL-2): > 100 µM (inactive)
- GI50 (NCI-H23): > 100 µM (inactive)
- GI50 (SF-295): > 100 µM (inactive)
- GI50 (KM12): > 100 µM (inactive)
- GI50 (SF-539): > 100 µM (inactive)
- GI50 (NCI-H226): > 100 µM (inactive)
- GI50 (OVCAR-5): > 100 µM (inactive)
- GI50 (NCI/ADR-RES): > 100 µM (inactive)
- GI50 (NCI-H460): > 100 µM (inactive)
- GI50 (SK-MEL-28): > 100 µM (inactive)
- GI50 (SW-620): > 100 µM (inactive)
- GI50 (HCT-116): > 100 µM (inactive)
- GI50 (MCF7): > 100 µM (inactive)
- GI50 (A498): > 100 µM (inactive)
- GI50 (SK-MEL-5): > 100 µM (inactive)
- GI50 (MDA-N): > 100 µM (inactive)
- GI50 (RXF 393): > 100 µM (inactive)
- GI50 (Hs-578T): > 100 µM (inactive)
- GI50 (SR): > 100 µM (inactive)
- GI50 (SN12C): > 100 µM (inactive)
- GI50 (COLO 205): > 100 µM (inactive)
- GI50 (HOP-62): > 100 µM (inactive)
- GI50 (Malme-3M): > 100 µM (inactive)
- GI50 (HT-29): > 100 µM (inactive)
- GI50 (M14): > 100 µM (inactive)
- GI50 (IGROV-1): > 100 µM (inactive)
- GI50 (PC-3): > 100 µM (inactive)
- GI50 (K562): > 100 µM (inactive)
- GI50 (SF-268): > 100 µM (inactive)
- GI50 (SNB-19): > 100 µM (inactive)
- GI50 (EKVX): > 100 µM (inactive)
- GI50 (BT-549): > 100 µM (inactive)
- GI50 (CAKI-1): > 100 µM (inactive)
- GI50 (SK-OV-3): > 100 µM (inactive)
- GI50 (SNB-75): 28.8 µM (inactive)
- GI50 (HOP-92): > 100 µM (inactive)
- GI50 (A549): > 100 µM (inactive)
- GI50 (OVCAR-3): > 100 µM (inactive)
- GI50 (UACC-257): > 100 µM (inactive)
- GI50 (U-251): > 100 µM (inactive)
- GI50 (MOLT-4): > 100 µM (inactive)
- GI50 (RPMI-8226): > 100 µM (inactive)
- GI50 (UO-31): > 100 µM (inactive)

Compound: CCOC(=O)NC(Nc1ccc(C(=O)OCC)cc1)(C(F)(F)F)C(F)(F)F
- GI50 (786-0): > 100 µM (inactive)
- GI50 (NCI-H522): > 100 µM (inactive)
- GI50 (UACC-62): 13.1 µM (inactive)
- GI50 (ACHN): 42.7 µM (inactive)
- GI50 (HL-60): > 100 µM (inactive)
- GI50 (MDA-MB-231): > 100 µM (inactive)
- GI50 (HCC 2998): > 100 µM (inactive)
- GI50 (CCRF-CEM): 6.58 µM (inactive)
- GI50 (T47D): 49 µM (inactive)
- GI50 (OVCAR-4): > 100 µM (inactive)
- GI50 (DU-145): > 100 µM (inactive)
- GI50 (MDA-MB-435): 51.2 µM (inactive)
- GI50 (OVCAR-8): > 100 µM (inactive)
- GI50 (HCT-15): 42.9 µM
- GI50 (NCI-H23): > 100 µM (inactive)
- GI50 (SF-295): > 100 µM (inactive)
- GI50 (KM12): 78.9 µM (inactive)
- GI50 (SF-539): > 100 µM (inactive)
- GI50 (NCI-H226): > 100 µM (inactive)
- GI50 (OVCAR-5): 79.8 µM (inactive)
- GI50 (NCI/ADR-RES): > 100 µM (inactive)
- GI50 (NCI-H460): 66.8 µM (inactive)
- GI50 (SK-MEL-28): > 100 µM (inactive)
- GI50 (SW-620): 61.4 µM (inactive)
- GI50 (HCT-116): > 100 µM (inactive)
- GI50 (MCF7): > 100 µM (inactive)
- GI50 (A498): > 100 µM (inactive)
- GI50 (SK-MEL-5): 65.2 µM (inactive)
- GI50 (MDA-N): 49.8 µM (inactive)
- GI50 (Hs-578T): > 100 µM (inactive)
- GI50 (SR): 86.3 µM (inactive)
- GI50 (SN12C): > 100 µM (inactive)
- GI50 (COLO 205): > 100 µM (inactive)
- GI50 (HOP-62): > 100 µM (inactive)
- GI50 (Malme-3M): > 100 µM (inactive)
- GI50 (HT-29): > 100 µM (inactive)
- GI50 (M14): > 100 µM (inactive)
- GI50 (IGROV-1): 56.8 µM (inactive)
- GI50 (PC-3): 45 µM (inactive)
- GI50 (K562): 9.29 µM (inactive)
- GI50 (SF-268): > 100 µM (inactive)
- GI50 (SNB-19): 96.8 µM (inactive)
- GI50 (TK-10): > 100 µM (inactive)
- GI50 (BT-549): > 100 µM (inactive)
- GI50 (SK-OV-3): > 100 µM (inactive)
- GI50 (SNB-75): > 100 µM (inactive)
- GI50 (HOP-92): > 100 µM (inactive)
- GI50 (A549): 50.9 µM (inactive)
- GI50 (OVCAR-3): > 100 µM (inactive)
- GI50 (U-251): 68.1 µM (inactive)
- GI50 (LOX IMVI): 4.26 µM (inactive)
- GI50 (MOLT-4): 11.1 µM (inactive)
- GI50 (RPMI-8226): > 100 µM (inactive)
- GI50 (UO-31): 42.5 µM (inactive)
